Experimental findings from ChEMBL document CHEMBL1133329, “N-acyl phenylalanine analogues as potent small molecule VLA-4 antagonists” (Bioorg Med Chem Lett, 2000) are described below.

The structures appear in SMILES notation.

Type in all cases: cell-based
Assay [1] addresses T1, Integrin alpha-4/beta-1 (Homo sapiens, UniProt P05556+P13612). In words: Inhibition of recombinant human VCAM binding to VLA-4 of Ramos cells at 10 uM.
Assay [2] has as its target T1, Integrin alpha-4/beta-1. In words: Antagonistic activity against VLA-4 (derived from ramos cells) binding to recombinant human VCAM.
For assay [3], the target named is T1, Integrin alpha-4/beta-1. In words: Inhibition of CS-1 peptide binding to VLA-4 expressed in Ramos cells.

T1 sequence (P05556 whole entry): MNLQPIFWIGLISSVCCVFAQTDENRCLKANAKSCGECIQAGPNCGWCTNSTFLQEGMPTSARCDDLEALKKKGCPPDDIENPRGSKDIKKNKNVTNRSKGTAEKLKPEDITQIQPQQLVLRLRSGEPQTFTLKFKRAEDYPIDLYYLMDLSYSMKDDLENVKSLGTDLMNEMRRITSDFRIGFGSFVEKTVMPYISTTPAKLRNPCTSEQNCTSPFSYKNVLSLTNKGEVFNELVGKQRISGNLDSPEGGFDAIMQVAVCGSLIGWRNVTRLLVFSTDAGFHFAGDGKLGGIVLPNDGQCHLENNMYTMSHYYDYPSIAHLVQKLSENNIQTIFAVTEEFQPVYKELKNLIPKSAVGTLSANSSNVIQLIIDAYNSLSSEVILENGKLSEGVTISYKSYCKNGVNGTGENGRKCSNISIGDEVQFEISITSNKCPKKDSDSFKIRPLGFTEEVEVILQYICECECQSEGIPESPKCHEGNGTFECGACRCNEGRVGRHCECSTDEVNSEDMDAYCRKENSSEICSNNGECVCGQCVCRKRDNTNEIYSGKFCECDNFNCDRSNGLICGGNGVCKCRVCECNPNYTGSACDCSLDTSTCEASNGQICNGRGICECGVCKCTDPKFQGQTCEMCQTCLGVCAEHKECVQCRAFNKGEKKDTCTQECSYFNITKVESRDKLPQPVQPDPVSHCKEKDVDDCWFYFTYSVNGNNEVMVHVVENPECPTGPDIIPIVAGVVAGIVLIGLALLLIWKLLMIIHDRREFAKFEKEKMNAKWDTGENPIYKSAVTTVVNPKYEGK
T1 sequence (P13612 whole entry): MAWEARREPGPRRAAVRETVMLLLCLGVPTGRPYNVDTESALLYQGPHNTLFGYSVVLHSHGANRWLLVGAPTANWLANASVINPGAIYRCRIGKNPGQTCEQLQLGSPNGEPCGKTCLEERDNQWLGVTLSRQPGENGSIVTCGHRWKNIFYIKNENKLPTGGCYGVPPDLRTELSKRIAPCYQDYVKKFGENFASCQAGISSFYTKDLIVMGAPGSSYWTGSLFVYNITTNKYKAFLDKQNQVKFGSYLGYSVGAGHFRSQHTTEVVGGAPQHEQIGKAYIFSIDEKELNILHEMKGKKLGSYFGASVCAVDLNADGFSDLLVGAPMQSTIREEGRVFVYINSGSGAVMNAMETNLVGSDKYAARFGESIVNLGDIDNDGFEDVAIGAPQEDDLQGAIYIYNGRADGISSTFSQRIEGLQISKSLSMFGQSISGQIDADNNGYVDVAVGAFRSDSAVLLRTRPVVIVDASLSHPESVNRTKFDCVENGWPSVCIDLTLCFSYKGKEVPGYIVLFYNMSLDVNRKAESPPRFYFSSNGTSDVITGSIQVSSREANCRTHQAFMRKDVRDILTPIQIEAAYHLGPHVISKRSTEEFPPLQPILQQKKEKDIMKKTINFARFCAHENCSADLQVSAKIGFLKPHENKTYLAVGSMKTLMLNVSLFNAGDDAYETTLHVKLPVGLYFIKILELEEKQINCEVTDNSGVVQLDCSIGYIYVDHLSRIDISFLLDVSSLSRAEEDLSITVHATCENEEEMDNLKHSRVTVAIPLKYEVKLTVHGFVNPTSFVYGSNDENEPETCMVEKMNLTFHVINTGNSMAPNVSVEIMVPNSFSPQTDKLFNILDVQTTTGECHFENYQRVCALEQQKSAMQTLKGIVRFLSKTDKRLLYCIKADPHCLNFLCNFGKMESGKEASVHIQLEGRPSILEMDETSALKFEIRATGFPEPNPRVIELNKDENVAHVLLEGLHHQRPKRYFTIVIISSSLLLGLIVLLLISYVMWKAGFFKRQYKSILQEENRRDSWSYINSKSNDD

The inhibition is the change of the read-out against control, counted positive when it falls. Take `CCCCCOc1ccc(C[C@H](NC(=O)C2CC(=O)N(C)C2c2cccnc2)C(=O)O)cc1` (stereo in doubt; 22) [listing 1 of 2 here]: the inhibition in assay [1] was determined as 90%. As usually defined, the IC50 is the concentration that inhibits the measured activity by half. For the molecule `CC1(C(=O)N[C@@H](Cc2ccc(C#CCCCC(=O)O)cc2)C(=O)O)CC1(Cl)Cl` (stereo not given in full), the IC50 in assay [2] was 187 nM. In assay [1], the inhibition was 80%. Regarding `CCCCCOc1ccc(C[C@H](NC(=O)C2CC(=O)N(C)C2c2cccnc2)C(=O)O)cc1` (stereo in doubt; 3) [listing 1 of 2 here], the inhibition in assay [1] turned out to be 81%. For the molecule `CCCCCOc1ccc(C[C@H](NC(=O)c2cccnc2)C(=O)O)cc1`, in assay [2], the half-maximal inhibitory concentration (IC50) was 3800 nM. In assay [1], the inhibition came to 87%. The like results for `COC(=O)CCCC#Cc1ccc(C[C@H](NC(=O)c2ccc(S(N)(=O)=O)cc2)C(=O)O)cc1` were, in that order, 317 nM and 94%. As to `CC(C)(C)OC(=O)N1CCC[C@H](CC(=O)N[C@@H](Cc2ccc(C#CCCCC(=O)O)cc2)C(=O)O)C1`, the IC50 in assay [2] amounted to 640 nM. Same read-out and setting: the figure for `CCCCCOc1ccc(C[C@H](NC(=O)C2(C)CC2(Cl)Cl)C(=O)O)cc1` (stereo not given in full) is 210 nM. For `CO/N=C(\C(=O)N[C@@H](Cc1ccc(C#CCCCC(=O)OC)cc1)C(=O)O)c1csc(N)n1`, in assay [2], the 50% inhibitory concentration (IC50) worked out at 135 nM. Moreover, the inhibition in assay [1] was found to be 99%. Take `CCCCCOc1ccc(C[C@H](NC(=O)C2CC(=O)N(C)C2c2cccnc2)C(=O)O)cc1` (stereo in doubt; 22) [listing 2 of 2 here]: in assay [2], the IC50 came to 870 nM. Regarding `CCCCCOc1ccc(C[C@H](NC(=O)Cc2cccc(N)c2)C(=O)O)cc1`, in assay [2], the IC50 was found to be 4500 nM. Turning to `CCCCCOc1ccc(C[C@H](NC(=O)[C@@H]2CSCN2C(C)=O)C(=O)O)cc1`, the 50% inhibitory concentration (IC50) in assay [2] worked out at 112 nM; in assay [3], 4200 nM. Take `CCCCCOc1ccc(C[C@H](NC(=O)c2c3ccccc3nc3ccccc23)C(=O)O)cc1`: in assay [2], the IC50 is 590 nM. Further, the inhibition in assay [1] is 92%.

As for `O=C(O)CCCC#Cc1ccc(C[C@H](NC(=O)[C@@H]2CCC(=O)N2Cc2ccccc2)C(=O)O)cc1`, the IC50 in assay [2] was found to be 20 nM. `CCCCCOc1ccc(C[C@H](NC(=O)C2CC(=O)N(C)C2c2cccnc2)C(=O)O)cc1` (stereo in doubt; 3) [listing 2 of 2 here]: the half-maximal inhibitory concentration (IC50) in assay [2] worked out at 1700 nM. Turning to `CCCCCOc1ccc(C[C@H](NC(=O)/C(=N/OC)c2csc(N)n2)C(=O)O)cc1`, the IC50 in assay [2] was found to be 60 nM.

On to `CCCCCCc1ccc(C[C@H](NC(=O)Cc2cccc(NC(=N)N)c2)C(=O)O)cc1`, for which the IC50 in assay [2] is 7000 nM. On the same count and under the same terms, the figure for `CCCCCOc1ccc(C[C@H](NC(=O)c2c(C)cc(C)cc2C)C(=O)O)cc1` is 245 nM. In the case of `CCCCCOc1ccc(C[C@H](NC(=O)[C@@H]2CCC(=O)N2Cc2ccccc2)C(=O)O)cc1`, the IC50 in assay [2] came to 46 nM. Besides, the inhibition in assay [1] came to 97%.
